The structures appear in SMILES notation. Counter-ions that a name gives are not always drawn.

One test deals with T1, BTK-1h (Homo sapiens, UniProt Q06187).
T1 construct: The BTK kinase domain was diluted to 2 μM in the buffer, and 2 μM 1h was added; made in house
As to the kind of experiment: High-throughput screening with 1h-labeled BTK. Format: binding. On the procedure:
The collection was composed of BTK binding compounds obtained in our previous luminescence screen[37] (Data set S2). […] The resulting BTK-1h (50 μL) was added to the inhibitors.

In the next test the test system is Bcr-Abl(T315I). Also noted: method as in selleck (supplier comment). Conditions: ref selleck (supplier comment); cited from earlier work.
The subject of the next test is Bcr-Abl(WT). Also on record: method as in selleck (supplier comment). To be noted: ref selleck (supplier comment); cited from earlier work.
The next test concerns the target BTK (Homo sapiens, UniProt Q06187). Also noted: BTK kinase domain was expressed and purified as previously reported; made in house; method as in Reddi et al., J. Am. Chem. Soc. 2021, 143 (13), 4979–4992. To be noted: ref Reddi et al., J. Am. Chem. Soc. 2021, 143 (13), 4979–4992; cited from earlier work.
In a further test the target is G-quadruplexe. Also on record: method as in selleck (supplier comment). Conditions: cell-free assay; ref selleck (supplier comment); cited from earlier work.
The next test has as its system WT BTK. Also noted: method as in selleck (supplier comment). Conditions: ref selleck (supplier comment); cited from earlier work.
Another test deals with C481S BTK. Also noted: method as in selleck (supplier comment). Conditions: ref selleck (supplier comment); cited from earlier work.
[1] abbreviates: Dataset S2A, 200 μM compound, BTK-1h, 32 °C, 10 min.
The mark [2] stands for this setting: Dataset S2C, BTK-1h with inhibitor.

T1 sequence (Q06187 402-655): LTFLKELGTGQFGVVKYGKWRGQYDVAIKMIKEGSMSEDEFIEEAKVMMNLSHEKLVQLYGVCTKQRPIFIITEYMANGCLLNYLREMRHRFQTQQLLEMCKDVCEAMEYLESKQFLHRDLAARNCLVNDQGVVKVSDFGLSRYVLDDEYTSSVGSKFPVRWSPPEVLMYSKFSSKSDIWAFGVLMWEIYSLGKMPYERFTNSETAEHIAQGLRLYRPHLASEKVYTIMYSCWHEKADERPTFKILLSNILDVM
Sequence of BTK (Q06187 402-655 limits assumed): as the sequence (Q06187 402-655) above

Regarding `Cc1ccc(C(=O)Nc2ccc(CN3CCN(C)CC3)c(C(F)(F)F)c2)cc1C#Cc1cnc2[nH]ncc2c1` [PCM-0215209-001, GZD824 Dimesylate], the “FI (650)/FI (620)” value at BTK-1h (setting [1]) worked out at 1.799; on BTK-1h (setting [2]), 1.6661. For the same compound, the “FI (BTK-1h)/FI (BTK-1h+Inhibitor) at 620 nm” value at BTK-1h (setting [1]) is listed as 1.6661. For the same compound, the IC50 in the test with Bcr-Abl(T315I) was 0.68 nM; in the test with Bcr-Abl(WT), 0.34 nM. The “BTK Inhibition reported in luminescence assay*” value (shortened to “BTK Inhibition reported”) on BTK is 114.5.

For `NCCOc1cc(C(=O)Nc2cc(OCCN)c3ccccc3n2)nc(C(=O)Nc2cc(OCCN)c3ccccc3n2)c1` [PCM-0215476-001, Pyridostatin Trifluoroacetate Salt], on BTK-1h (setting [1]), the “FI (650)/FI (620)” value is on record as 2.671 and the “FI (BTK-1h)/FI (BTK-1h+Inhibitor) at 620 nm” value is 1.539. Moreover, at BTK-1h (setting [2]), the “FI (650)/FI (620)” value was 1.539. Also, on G-quadruplexe, the equilibrium dissociation constant (Kd) was 490 nM. Also, on BTK, the “BTK Inhibition reported” value was 59.5.

Turning to `O=C(c1ccc(Oc2ccccc2)cc1Cl)c1c[nH]c2ncnc(N[C@@H]3CC[C@@H](CO)OC3)c12` [PCM-0216245-001, ARQ 531], the “FI (650)/FI (620)” value on BTK-1h (setting [1]) is on record as 3.795; at BTK-1h (setting [2]) it was 2.9215. Also, the “FI (BTK-1h)/FI (BTK-1h+Inhibitor) at 620 nm” value on BTK-1h (setting [1]) came to 2.9215. The IC50 is 0.85 nM with WT BTK and 0.39 nM in the test on C481S BTK. Further, at BTK, the “BTK Inhibition reported” value is on record as 115.8.

By IC50 is commonly meant the point on the concentration scale where inhibition reaches its midpoint. Usually Kd stands for the constant that tells how readily two partners part at equilibrium.

Source of the values: paper PMC8662641, “Site-Specific Labeling of Endogenous Proteins Using CoLDR Chemistry” (Journal of the American Chemical Society, 2021).
